The values that follow are results of earlier work, collected in patent US20250375533A1, “Sublingual Formulation of Anticancer Compound for Use in the Treatment of Autoimmune Neurodegenerative Diseases” (Vektor Pharma TF GmbH, priority 2022, published 2025).

For series [1] the following is noted: in vivo.
The conditions of series [2]: administered rectally.
For series [3] the following is noted: 37° C.
The next series has as its system Escherichia coli. The settings on record: Escherichia coli culture.
The conditions of series [4]: oral solution without HPβCD.
The target of series [5] is BCRP (ABCG2) transporter proteins (Homo sapiens, UniProt Q9UNQ0).
BCRP (ABCG2) transporter proteins, sequence (Q9UNQ0 whole entry): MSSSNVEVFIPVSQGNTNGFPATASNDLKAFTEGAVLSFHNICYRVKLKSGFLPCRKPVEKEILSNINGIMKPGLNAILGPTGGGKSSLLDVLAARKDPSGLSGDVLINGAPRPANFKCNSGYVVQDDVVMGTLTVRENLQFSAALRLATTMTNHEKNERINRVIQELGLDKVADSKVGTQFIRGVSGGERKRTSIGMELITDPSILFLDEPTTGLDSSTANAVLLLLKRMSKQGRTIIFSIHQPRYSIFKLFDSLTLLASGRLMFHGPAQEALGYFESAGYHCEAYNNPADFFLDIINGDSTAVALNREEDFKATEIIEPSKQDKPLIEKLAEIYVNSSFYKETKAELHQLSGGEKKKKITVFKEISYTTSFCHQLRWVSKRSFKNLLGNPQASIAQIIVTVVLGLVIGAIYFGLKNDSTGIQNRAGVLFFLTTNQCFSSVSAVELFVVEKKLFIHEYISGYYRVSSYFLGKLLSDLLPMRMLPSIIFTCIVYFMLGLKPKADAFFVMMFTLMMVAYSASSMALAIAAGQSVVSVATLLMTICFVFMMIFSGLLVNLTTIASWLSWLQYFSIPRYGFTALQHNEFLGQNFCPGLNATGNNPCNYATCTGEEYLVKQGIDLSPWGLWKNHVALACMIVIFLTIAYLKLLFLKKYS
The conditions of series [6]: saliva.
The conditions of series [7]: pH 1.4 solution; for active substance maintained: with cyclodextrins.
In a further series the test system is Clostridium perfringens. Particulars: Clostridium perfringens culture.

Where two headings read alike, the source gives them in different places.

As to `Nc1nc(Cl)nc2c1ncn2[C@H]1C[C@H](O)[C@@H](CO)O1` [Mavenclad], in series [1], the “interpatient variability, CV %, AUC inf” value is 29.2%; the “interpatient variability, CV %, AUC t” value is given as 29.8%; the “interpatient variability, CV %, Cmax” value is recorded as 43.0%.
As for `Nc1nc(Cl)nc2c1ncn2[C@H]1C[C@H](O)[C@@H](CO)O1` [cladribine, 2-chloro-2′-deoxyadenosine], the solubility in water result is “slightly soluble”. Also, in [2], the bioavailability is 21%. In addition, the “tin value of cladribine” value in [3] (pH 1.0 solutions) is 0.37 h. The “tin value of cladribine” value in [3] (pH 2.0 solutions) is 1.6 h. The “degradation (deglycosylation to Cloroadenine)” value with whole feces was “rapidly deglycosylated”. Besides, the degradation entry with Enterococcus faecalis was “slowly or not at all”. For the same compound, in the series on Escherichia coli, the “degradation (deglycosylation to Cloroadenine)” value is reported as “rapidly deglycosylated”. In addition, in the series with Bacteroides fragilis, the degradation entry is given as “slowly or not at all”. Further, the “bioavailability after oral administration” value in [4] is reported as 35.3%. Besides, the “substrate of BCRP (ABCG2) transporter proteins” value in series [5] is recorded as “substrate of BCRP”. In addition, the degradation result in [6] is “slowly or not at all”. The “active substance remained in solution” value in series [7] (absence of cyclodextrins, after 8 hours) is reported as 15%. In addition, the active substance lost result in [7] (absence of cyclodextrins, after about 3 hours) was “about 50%”. The active substance maintained result in [7] (8 hours) is “approximately 70%”. In addition, the active substance maintained result in series [7] (almost 5 hours) is reported as “more than 80%”. In addition, the “degradation (deglycosylation to Cloroadenine)” value with Clostridium perfringens is recorded as “rapidly deglycosylated”.
